Where a SMILES comes first, the peptide text is derived from it.
Columns and labels:
[1] = system: subjects treated for psoriasis; details: after 4 weeks; cited from earlier work
[2] = target: T1, mouse GPR15 (Mus musculus, UniProt Q0VDU3); experiment: Aequorin assay on mouse GPR15 stably expressed in CHO-Aeq cells; format: cell-based; details: CHO and IV produced polypeptide
T1 construct: expressed in transfected cells; host or cells: CHO-Aeq (with or without Galpha16), vector pEFIN5
T1 sequence (Q0VDU3 1-360): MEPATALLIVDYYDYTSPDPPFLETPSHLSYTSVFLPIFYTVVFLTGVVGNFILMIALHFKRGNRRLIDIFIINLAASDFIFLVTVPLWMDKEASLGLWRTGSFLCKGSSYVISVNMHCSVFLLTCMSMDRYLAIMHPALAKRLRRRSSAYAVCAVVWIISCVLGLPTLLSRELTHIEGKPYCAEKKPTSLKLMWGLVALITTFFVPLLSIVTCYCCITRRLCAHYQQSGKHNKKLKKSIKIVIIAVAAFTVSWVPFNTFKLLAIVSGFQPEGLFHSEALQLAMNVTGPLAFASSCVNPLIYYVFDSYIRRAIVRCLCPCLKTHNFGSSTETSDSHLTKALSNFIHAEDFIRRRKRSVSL
From the text: (§1) Throughout this specification, the term “Aequorin assay” refers to methods for performing high throughput functional screening of GPCRs. Said methods employ recombinant cell lines stably transfected with plasmids encoding apoaequorin, a GPCR of interest and if necessary, a recombinant G protein to redirect the coupling of the GPCR toward calcium signaling. After clonal selection, the best clones are selected on the basis of pharmacological characterization, high signal to background ratio and stability of expression. This method has been developed by Euroscreen SA, 47 Rue Adrienne Bolland, 6041 Gosselies, Belgium.
(§2) Plasmids encoding human and mouse GPR15 were stably transfected in CHO, 1321 N1 and HEK293 cells expressing the apoaequorin (CHO-Aeq, 1321-N1-Aeq and HEK-Aeq). GPR15 mRNA sequence integrities were checked using RT-PCR at T0 and T30 culture times in CHO cells.
(§3) QKPQLWVVPGALPQV peptide (SEQ ID NO: 2), corresponding to a putative tryptic C-term fragment (43-57) of the porcine peptide, was first synthesised for GPR15 evaluation.

[3] = system: human neonatal dermal fibroblasts; experiment: IP-10 (CXCL10) release from human neonatal dermal fibroblasts; format: cell-based; details: GPR15-independent
From the text: GPR15L action is also mediated by a GPR15-independent mechanism in human neonatal dermal fibroblasts. […] Interferon gamma-induced protein 10 (IP-10), also known as C—X—C motif chemokine 10 (CXCL10), is secreted by monocytes, endothelial cells, and fibroblasts in response to IFN-γ. CXCL10 binds to the cell surface chemokine receptor CXCR3 and is implicated in such processes as chemoattraction for monocytes/macrophages, T cells, NK cells, and dendritic cells, promotion of T cell adhesion to endothelial cells, antitumor activity, and inhibition of bone marrow colony formation and angiogenesis.

[4] = target: T2, human GPR23 (Homo sapiens, UniProt Q99677); experiment: Aequorin assay on unrelated receptor hGPR23 (selectivity); format: cell-based; details: CHO-Aeq cells expressing hGPR23
T2 construct: expressed in transfected cells; host or cells: CHO-Aeq Galpha16
T2 sequence (Q99677 whole entry): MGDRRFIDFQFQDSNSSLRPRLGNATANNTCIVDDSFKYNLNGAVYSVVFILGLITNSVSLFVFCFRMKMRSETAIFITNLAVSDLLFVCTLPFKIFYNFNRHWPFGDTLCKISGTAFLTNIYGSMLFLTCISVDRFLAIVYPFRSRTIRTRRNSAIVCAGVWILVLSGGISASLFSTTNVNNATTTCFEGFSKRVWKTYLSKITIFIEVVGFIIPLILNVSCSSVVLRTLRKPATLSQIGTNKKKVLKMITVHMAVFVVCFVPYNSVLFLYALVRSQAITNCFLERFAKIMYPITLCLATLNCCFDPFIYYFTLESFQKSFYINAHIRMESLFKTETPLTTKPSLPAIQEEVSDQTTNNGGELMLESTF
From the text: as §1, §3
(§4) Both peptides (i.e., those produced via CHO production and in vitro production in the agglutinin wheat germ extract system) were tested for GPR15 activation using Aequorin dose response curves.

[5] = system: SW48 cells; experiment: Forskolin-induced cAMP in SW48 colon cancer cells; format: cell-based, human; details: pertussis toxin sensitive
[6] = system: SW48 cells; experiment: Intracellular calcium in SW48 colon cancer cells; format: cell-based, human; details: after priming
[7] = target: T3, human GPR15 (Homo sapiens, UniProt P49685); experiment: Aequorin assay on human GPR15 stably expressed in recombinant cells; format: cell-based
T3 construct: expressed in transfected cells; host or cells: CHO-Aeq (with or without Galpha16), vector pEFIN3
T3 sequence (P49685 1-360): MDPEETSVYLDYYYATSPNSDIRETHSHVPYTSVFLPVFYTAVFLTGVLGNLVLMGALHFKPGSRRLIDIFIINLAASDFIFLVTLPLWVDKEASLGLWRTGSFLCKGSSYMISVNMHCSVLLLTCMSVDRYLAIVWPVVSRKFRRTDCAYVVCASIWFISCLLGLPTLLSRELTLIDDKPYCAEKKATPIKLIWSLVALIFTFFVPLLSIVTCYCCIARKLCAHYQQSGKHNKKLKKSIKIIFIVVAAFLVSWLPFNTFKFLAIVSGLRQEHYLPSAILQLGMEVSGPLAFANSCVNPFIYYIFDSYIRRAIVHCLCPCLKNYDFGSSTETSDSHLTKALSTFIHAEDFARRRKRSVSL
From the text: as §1, §2
An hGPR15 CHO-Gα16Aeq cell line was used for the Aequorin screening of Euroscreen proprietary libraries of natural ligands and tissue extracts collection. Specific activation of GPR15 over more than 20 other orphan GPCRs was identified in fractions from a colon aqueous extract.
as §3, §4

[8] = target: T3, human GPR15; experiment: cAMP HTRF assay on CHO and HEK cells stably expressing hGPR15; format: cell-based
[9] = target: T4, human GPRC5C (Homo sapiens, UniProt Q9NQ84); experiment: Aequorin assay on unrelated receptor GPRC5C (selectivity); format: cell-based; details: CHO-Aeq cells expressing GPRC5C
T4 construct: expressed in transfected cells; host or cells: CHO-Aeq Galpha16
T4 sequence (Q9NQ84 24-441): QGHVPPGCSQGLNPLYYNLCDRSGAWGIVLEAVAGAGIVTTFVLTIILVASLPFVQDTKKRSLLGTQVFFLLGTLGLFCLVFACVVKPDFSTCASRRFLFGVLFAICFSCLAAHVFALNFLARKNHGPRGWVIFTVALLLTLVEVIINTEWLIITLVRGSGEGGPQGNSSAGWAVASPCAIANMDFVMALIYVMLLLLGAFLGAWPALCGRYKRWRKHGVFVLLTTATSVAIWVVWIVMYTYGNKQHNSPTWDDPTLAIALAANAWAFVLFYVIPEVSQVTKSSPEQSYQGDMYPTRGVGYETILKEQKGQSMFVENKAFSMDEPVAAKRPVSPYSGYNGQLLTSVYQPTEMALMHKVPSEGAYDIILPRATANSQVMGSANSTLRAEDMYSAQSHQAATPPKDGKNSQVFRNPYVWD

Compound	c10orf99 mRNA [1]	reduction in the Psoriasis Area and Severity Index (PAST) [1] [%]	activation of mouse GPR15 receptor [2]	IP-10 release [3]	calcium/luminescence response of hGPR23 cells [4]	forskolin-induced cAMP elevation [5]	intracellular calcium levels [6]	activation of hGPR15 ([7]; CHO-Aeq cells, ligand from CHO production or IV preparation)	activation of hGPR15 in HEK-Aeq Gα16 cells ([7]; stably transfected HEK-Aeq Gα16 cells)	activation of hGPR15 (cAMP HTRF assay) [8]	calcium signal on GPRC5C [9]	activation of hGPR15 CHO cell line ([7]; hGPR15 CHO cell line, compared with EC50 of ~2 μM)
secukinumab: fully human monoclonal antibody that selectively binds to and neutralizes IL-17A	significant decrease	58										
KRRPAKAWSGRRTRLCCHRVPSPNSTNLKGHHVRLCKPCK LEPEPRLWVVPGALPQV (KRRPAKAWSGRRTRLCCHRVPSPNSTNLKGHHVRLCKPCKLEPEPRLWVVPGALPQV) [c10orf99, made by CHO production, in vitro translation or synthesis]			Activation of mouse GPR15 receptor was observed	induces IP-10-release	failed to induce any calcium signal	pertussis toxin sensitive decrease in forskolin-induced cAMP elevation	dose response dependent increase in intracellular calcium levels	specifically activated	confirmed	activation	failed to induce any calcium signal	
CC(C)C[C@H](NC(=O)[C@H](CCC(N)=O)NC(=O)[C@@H]1CCCN1C(=O)[C@H](CCCCN)NC(=O)[C@@H](N)CCC(N)=O)C(=O)N[C@@H](Cc1c[nH]c2ccccc12)C(=O)N[C@H](C(=O)N[C@H](C(=O)N1CCC[C@H]1C(=O)NCC(=O)N[C@@H](C)C(=O)N[C@@H](CC(C)C)C(=O)N1CCC[C@H]1C(=O)N[C@@H](CCC(N)=O)C(=O)N[C@H](C(=O)O)C(C)C)C(C)C)C(C)C [QKPQLWVVPGALPQV peptide, QKPQLWVVPGALPQV] (H-QKPQLWVVPGALPQV-OH; N-terminus and C-terminus assumed)					failed in responding							same affinity
